Measured values from patent US20110318741A1, “BIOMARKERS FOR THE TREATMENT OF PSORIASIS” (priority 2010, published 2011).

System: psoriasis lesional skin
Assay: Histological analysis (immunohistochemistry, H&E) of skin biopsies from psoriasis patients in a clinical trial
Assay type: in vivo, human
Details: for CD56 in Epidermis: Biopsy Parameters Median Change (%) / Langerin in Dermis: Biopsy Parameters Median Change (%) / CD11c in Epidermis: Biopsy Parameters Median Change (%) / CD3 in Dermis: Biopsy Parameters Median Change (%) / CD3 in Epidermis: Biopsy Parameters Median Change (%) / Thickness: Biopsy Parameters Median Change (%) / CD11c in Dermis: Biopsy Parameters Median Change (%) / CD56 in Dermis: Biopsy Parameters Median Change (%) / Langerin in Epidermis: Biopsy Parameters Median Change (%): subjects also with PASI values
Experimental: Skin biopsies were evaluated on 20 patients in a clinical trial, where 20 mg of (S)—N-(2-(1-(3-ethoxy-4-methoxyphenyl)-2-(methylsulfonyl)ethyl)-1,3-dioxoisoindolin-4-yl)acetamide was administered b.i.d. to patients with psoriasis. Skin biopsies were done 4 weeks and 12 weeks post-treatment.
The biopsies were subjected to a histological analysis in which response was assessed in H&E stained sections of skin biopsies and after staining frozen sections of skin biopsies with antibodies to keratin 16. CD3, CD11c. ICAM-1. Langerin, CD56, Foxp3, and HLA-DR. This analysis thus included an assessment of epidermal growth/differentiation, skin infiltration by T-cells and DC subsets, presence of regulatory T-cells, and presence of inflammation-regulating molecules in skin lesions.
The pharmacodynamic effects of (S)—N-(2-(1-(3-ethoxy-4-methoxyphenyl)-2-(methylsulfonyl)ethyl)-1,3-dioxoisoindolin-4-yl)acetamide were studied in skin biopsies from subjects treated with the compound in a phase 2, multi-center, open-label study evaluating the safety, tolerability, and efficacy of the compound in recalcitrant psoriasis vulgaris. Skin biopsies were taken from uninvolved and involved skin at baseline, and from involved skin after treatment with (S)—N-(2-(1-(3-ethoxy-4-methoxyphenyl)-2-(methylsulfonyl)ethyl)-1,3-dioxoisoindolin-4-yl)acetamide 20 mg BID after 4 and 12 weeks.
Skin biopsies were evaluated on 20 patients in this trial. The biopsies were analyzed by immunohistochemistry for a set of cellular markers (keratin 16, CD3. CD11c. ICAM-1, Langerin, CD56, Foxp3, and HLA-DR) to assess epidermal growth/differentiation, skin infiltration by T-cells and dendritic cells (DC), presence of regulatory T-cells, and the presence of inflammation-regulating molecules in skin lesions.

In the case of `CCOc1cc([C@@H](CS(C)(=O)=O)N2C(=O)c3cccc(NC(C)=O)c3C2=O)ccc1OC` [(S)—N-(2-(1-(3-ethoxy-4-methoxyphenyl)-2-(methylsulfonyl)ethyl)-1,3-dioxoisoindolin-4-yl)acetamide], the “CD3+ T cells in the epidermis and dermis” value (20 mg BID) is reported as “significant reductions”, the “CD56+ NK cells in the epidermis” value (20 mg BID) is reported as “significant reductions” and the “CD56 in Epidermis: Biopsy Parameters Median Change (%)” value (Week 4, 20 mg BID, No. 16) is reported as −75.6%. For the same compound, the “Langerin in Dermis: Biopsy Parameters Median Change (%)” value (Week 4, 20 mg BID, No. 17) was −50.0%, the “CD11c in Epidermis: Biopsy Parameters Median Change (%)” value (Week 4, 20 mg BID, No. 18) was −73.1% and the “CD3 in Dermis: Biopsy Parameters Median Change (%)” value (Week 4, 20 mg BID, No. 19) was −24.5%. For the same compound, the “CD3 in Epidermis: Biopsy Parameters Median Change (%)” value (Week 4, 20 mg BID, No. 19) was −35.0%, the “Thickness: Biopsy Parameters Median Change (%)” value (Week 4, 20 mg BID, No. 19) was −22.9% and the “CD11c in Dermis: Biopsy Parameters Median Change (%)” value (Week 4, 20 mg BID, No. 20) was −45.8%. The “CD56 in Dermis: Biopsy Parameters Median Change (%)” value (Week 4, 20 mg BID, No. 20) was −27.6%, the “Langerin in Epidermis: Biopsy Parameters Median Change (%)” value (Week 4, 20 mg BID, No. 20) was 9.49% and the “CD3 T cells in Dermis: Median % change from baseline” value (Week 4, 20 mg b.i.d.) was −24.5%. The “CD3 T cells in Epidermis: Median % change from baseline” value (Week 4, 20 mg b.i.d.) was −35.0%, the “CD11c myeloid DC in Dermis: Median % change from baseline” value (Week 4, 20 mg b.i.d.) was −45.8% and the “CD11c myeloid DC in Epidermis: Median % change from baseline” value (Week 4, 20 mg b.i.d.) was −73.1%. The “CD56 NK cells in Dermis: Median % change from baseline” value (Week 4, 20 mg b.i.d.) was −27.6%, the “CD56 NK cells in Epidermis: Median % change from baseline” value (Week 4, 20 mg b.i.d.) was −75.6% and the “Epidermal Thickness: Median % change from baseline” value (Week 4, 20 mg b.i.d.) was −22.9%. For the same compound, the “Langerin in Dermis: Median % change from baseline” value (Week 4, 20 mg b.i.d.) was −50.0%, the “Langerin in Epidermis: Median % change from baseline” value (Week 4, 20 mg b.i.d.) was 9.5% and the “reduction of epidermal CD11c+ infiltrates” value (Week 4, 20 mg b.i.d.) was 73%. For the same compound, the “CD56 in Epidermis: Biopsy Parameters Median Change (%)” value (Week 12, 20 mg BID, No. 12) was −77.6%, the “Langerin in Dermis: Biopsy Parameters Median Change (%)” value (Week 12, 20 mg BID, No. 12) was −67.0% and the “CD11c in Epidermis: Biopsy Parameters Median Change (%)” value (Week 12, 20 mg BID, No. 13) was −97.5%. For the same compound, the “CD11c in Dermis: Biopsy Parameters Median Change (%)” value (Week 12, 20 mg BID, No. 14) was −56.0%, the “Thickness: Biopsy Parameters Median Change (%)” value (Week 12, 20 mg BID, No. 14) was −34.8% and the “CD3 in Dermis: Biopsy Parameters Median Change (%)” value (Week 12, 20 mg BID, No. 15) was −63.1%. The “CD3 in Epidermis: Biopsy Parameters Median Change (%)” value (Week 12, 20 mg BID, No. 15) was −56.1%, the “CD56 in Dermis: Biopsy Parameters Median Change (%)” value (Week 12, 20 mg BID, No. 15) was −18.2% and the “Langerin in Epidermis: Biopsy Parameters Median Change (%)” value (Week 12, 20 mg BID, No. 15) was 41.67%. For the same compound, the “CD3 T cells in Dermis: Median % change from baseline” value (Week 12, 20 mg b.i.d.) was −62.0%, the “CD3 T cells in Epidermis: Median % change from baseline” value (Week 12, 20 mg b.i.d.) was −47.4% and the “CD11c myeloid DC in Dermis: Median % change from baseline” value (Week 12, 20 mg b.i.d.) was −54.6%. For the same compound, the “CD11c myeloid DC in Epidermis: Median % change from baseline” value (Week 12, 20 mg b.i.d.) was −88.6%, the “CD56 NK cells in Dermis: Median % change from baseline” value (Week 12, 20 mg b.i.d.) was −12.5% and the “CD56 NK cells in Epidermis: Median % change from baseline” value (Week 12, 20 mg b.i.d.) was −73.3%. The “Epidermal Thickness: Median % change from baseline” value (Week 12, 20 mg b.i.d.) was −34.3%, the “Langerin in Dermis: Median % change from baseline” value (Week 12, 20 mg b.i.d.) was −57.9% and the “Langerin in Epidermis: Median % change from baseline” value (Week 12, 20 mg b.i.d.) was 17.1%. The “reduction of epidermal CD11c+ infiltrates” value (Week 12, 20 mg b.i.d.) was 84%, the “cases showing improvement in psoriasis (reduction in epidermal hyperplasia and/or keratin 16 staining)” value (day 29, of the 20 cases analyzed, 20 mg b.i.d.) was 10 cases and the T-cells in biopsies (day 29 and day 85 biopsies, overall reductions not statistically significant) was “reductions”. The “median reduction in epidermal thickness” value (day 85, 20 mg b.i.d.) was 34%, the “epidermal Langerhan's cells” value (day 85 biopsies) was “small increase” and the “cases showing absence of keratin 16 staining” value (day 85 biopsies, 20 mg b.i.d.) was 5 cases. For the same compound, the “cases showing disease improvement” value (day 85 biopsies, of the 20 cases analyzed, 20 mg b.i.d.) was “Nine”, the “CD56+ cells (NK cells or NK-T-cells)” value (during treatment, between week 4 and week 12) was “minimally altered” and the “inflammatory myeloid CD11c+ DCs (TIP-DCs)” value (epidermis and dermis, week 4 and week 12, 20 mg BID) was “major reduction”. For the same compound, the “Langerin in the epidermis” value (not statistically significant, not elevated in the dermis, 20 mg BID) was “slightly elevated”, the “reductions in cellular infiltrates in epidermis and dermis, responders vs non-responders” value (responders: change in PASI of 75% or more at week 12) was “greater among responders” and the “reduction in epidermal thickness” value (week 4, all measured values of thickness, 20 mg b.i.d.) was 23%.
